IC25 and IC50 data for 3 molecules are collected here from PMC7246003 (Medicinal Chemistry Research, 2020).

Read-outs that look alike come from different tables or passages of the source.

The target in assay [1] is T1, IAV RdRp from A/PR/8/34/H1N1 strain (Influenza A virus, UniProt P03428+P03431). It is filed as biochemical, influenza virus A/PR/8/34/H1N1.
Assay [2] deals with T1, IAV RdRp from A/PR/8/34/H1N1 strain. The following applies: inhibiting the transcriptional activity of viral polymerase; ref Pagadala [2019]; cited from earlier work.

In assay [1], “5′-Dimethoxytrityl-2′-tosyl-N2-isobutyryl-guanosine [Compound 7]” displayed an IC25 of 0.25 µM and an IC50 of 0.68 µM.
As for `Cc1cn([C@H]2C[C@H](N=[N+]=[N-])[C@@H](CO[P@](=O)(O)O[P@](=O)(O)OP(=O)(O)O)O2)c(=O)[nH]c1=O` [3′-azido-3′-deoxy-thymidine-5′-triphosphate], in assay [2], the IC50 is 1.12 µM.
Regarding `Nc1nc2c(ncn2[C@@H]2O[C@H](COP(=O)(O)OP(=O)(O)OP(=O)(O)O)[C@@H](O)[C@H]2F)c(=O)[nH]1` [Compound 12, 2′-deoxy-2′-fluoroguanosine 5′-triphosphate], the IC50 in assay [2] is 1.12 µM.
